# Laboratory results taken from patent US20150297772A1, “COMPOSITION FOR ODOR REMOVAL AND FRAGRANCE EMISSION COMPRISING COMPLEXES OF CUCURBITURIL AND FRAGRANCE” (POSTECH ACADEMY-INDUSTRY FOUNDATION, priority 2012, published 2015).
# Experiments:
# [1] = exchange of fragrant molecule for odor molecule in cucurbit[7]uril complex, evaluated by 1H-NMR; assay type: binding
# Description: Cucurbit[7]uril was dissolved in distilled water to obtain a 2 mM cucurbit[7]uril aqueous solution. Ethyl butyrate (2 mM), which is a fragrant material, was added to the solution to obtain a complex (cucurbit[7]uril:ethyl butyrate=1:1). The bonding of diallyldisulfide with cucurbituril according to the addition of diallyldisulfide, which is an odor material, and the release of ethyl butyrate according to the addition of diallyldisulfide were evaluated comparing the 1H-NMR peak of the complex after the addition of diallyldisulfide with the 1H-NMR peak of the complex before the addition of diallyldisulfide.
# (§1) Cucurbit[7]uril was dissolved in distilled water to obtain a 4 mM cucurbit[7]uril aqueous solution. Menthol (4 mM), which is a fragrant material, was added to the solution to obtain a complex (cucurbit[7]uril:menthol=1:1). The bonding of diaminohexane with cucurbituril according to the addition of diaminohexane, which is an odor material, and the release of menthol according to the addition of diaminohexane were evaluated comparing the 1H-NMR peak of the complex after the addition of diaminohexane with the 1H-NMR peak of the complex before the addition of diaminohexane.
# as §1, with “Hexanal” for “Menthol”, “(cucurbit[7]uril:hexanal=1:1).” for “(cucurbit[7]uril:menthol=1:1).”, “hexanal” for “menthol”
# [2] = complex formation of cucurbituril homologues with menthol, analyzed by 1H-NMR; assay type: binding; settings: slurry with 11.8 mg menthol and 0.5 mL distilled water, molar ratio 1:1, dried complex
# Description: A complex was prepared by mixing 100 mg of cucurbit[7]uril and 11.8 mg of menthol at a molar ratio of 1:1. 79.5 mg of cucurbit[6]uril and 118.3 mg of cucurbit[8]uril were respectively put into two mortars, and 11.8 mg of menthol was added to each of the mortars. 0.5 mL of distilled water was added to form a slurry, and then the slurry was stirred for 10 minutes using a pestle to prepare a complex. The complex was dried in an oven at […] for 6 hours. The dried complex was analyzed by 1H-NMR.
# [3] = cited from earlier work
molecule,measurement,setting,value
NCCCCCCN [diaminohexane],bonding of diaminohexane with cucurbituril (FIG. 5),"[1]; added to cucurbit[7]uril:hexanal=1:1 complex, 4 mM aqueous solution",makes a complex with cucurbituril
same,bonding of diaminohexane with cucurbituril (FIG. 4),"[1]; added to cucurbit[7]uril:menthol=1:1 complex, 4 mM aqueous solution",makes a complex with cucurbituril
O=C1N2CN3C(=O)N4CN5C(=O)N6CN7C(=O)N8CN9C(=O)N%10CN%11C(=O)N%12CN%13C(=O)N%14CN%15C(=O)N%16CN1C1C2N2CN%17C(=O)N(CN%18C(=O)N(CN%19C(=O)N(CN%20C(=O)N(CN%21C(=O)N(CN%22C(=O)N(CN%23C(=O)N(CN1C2=O)C%16C%15%23)C%14C%13%22)C%12C%11%21)C%10C9%20)C8C7%19)C6C5%18)C4C3%17 (stereo not shown) [cucurbit[8]uril],complex formation with menthol (FIG. 2),[2],weakly makes a complex with menthol
CCCCCC=O [hexanal],release of hexanal from the complex (FIG. 5),"[1]; cucurbit[7]uril:hexanal=1:1, 4 mM aqueous solution, diaminohexane added",released from the complex
cucurbit[7]uril,complex formation with menthol (FIG. 2),[2],strongly makes a complex with menthol
same,solubility in water,[3],2˜3×10^−2 M
"C=CCSSCC=C [diallydisulfide, diallyldisulfide]",bonding of diallyldisulfide with cucurbituril (FIG. 3),"[1]; added to cucurbit[7]uril:ethyl butyrate=1:1 complex, 2 mM aqueous solution",makes a complex with cucurbituril
CC1CCC(C(C)C)C(O)C1 (stereo not shown) [menthol],release of menthol from the complex (FIG. 4),"[1]; cucurbit[7]uril:menthol=1:1, 4 mM aqueous solution, diaminohexane added",released from the complex
O=C1N2CN3C(=O)N4CN5C(=O)N6CN7C(=O)N8CN9C(=O)N%10CN%11C(=O)N%12CN1C1C2N2CN%13C(=O)N(CN%14C(=O)N(CN%15C(=O)N(CN%16C(=O)N(CN%17C(=O)N(CN1C2=O)C%12C%11%17)C%10C9%16)C8C7%15)C6C5%14)C4C3%13 (stereo not shown) [cucurbit[6]uril],complex formation with menthol (FIG. 2),[2],barely makes a complex with menthol
CCCC(=O)OCC [ethyl butyrate],release of ethyl butyrate from the complex (FIG. 3),"[1]; cucurbit[7]uril:ethyl butyrate=1:1, 2 mM aqueous solution, diallyldisulfide added",released from the complex
